These results are taken from PubChem BioAssay (NCI).

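Five compound concentrations were applied to cells in 96-well plates for 48 hours; endpoints were derived by simple linear interpolation of the resulting dose-response curve. GI50 is the concentration that inhibits growth by half. TGI: total growth inhibition.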

Test systems include A498 renal; CCRF-CEM leukemia; HCC-2998 colon; MCF7 breast; NCI-H226 lung; NCI-H460 lung; OVCAR-4 ovarian; TK-10 renal; UO-31 renal; EKVX NSCLC.
Common to all, as to assay: NCI anticancer screen, dose series, 48 h

As to `Cc1ncc(CCCN(C)C)cc1Nc1ncc2c(n1)-c1ccc(C(F)(F)F)cc1NC(=S)C2`, the GI50 in the experiment with A498 renal was 0.0219 µM; in the experiment on CCRF-CEM leukemia it was under 0.0134 µM; with HCC-2998 colon, 0.0135 µM; in the experiment on MCF7 breast it was under 0.0155 µM; in the experiment with NCI-H226 lung, 0.659 µM; in the experiment with NCI-H460 lung, under 0.0178 µM. Also, the results for the GI50 in the experiment with OVCAR-4 ovarian, in the experiment with TK-10 renal and in the experiment on UO-31 renal were 1.22 µM, 0.65 µM and 0.494 µM, respectively. The TGI is 0.0769 µM in the experiment with A498 renal; 10.4 µM with CCRF-CEM leukemia; 10.3 µM with HCC-2998 colon; 11.2 µM in the experiment with MCF7 breast; 15.7 µM with NCI-H226 lung; 11.9 µM with NCI-H460 lung. Also, the figures for the TGI in the experiment with OVCAR-4 ovarian, in the experiment with TK-10 renal and in the experiment with UO-31 renal were over 100 µM, 19.8 µM and 12.5 µM, respectively.
Turning to `CCn1c(-c2ccc(OC(C)=O)cc2)c(C)c2cc(OC(C)=O)ccc21`, the TGI was 70.4 µM with A498 renal; 53.9 µM in the experiment with CCRF-CEM leukemia; 71.4 µM in the experiment with EKVX NSCLC; 40.4 µM in the experiment on MCF7 breast; over 100 µM with NCI-H226 lung; 56.4 µM with NCI-H460 lung. Besides, the TGI amounted to 59.8 µM in the experiment on OVCAR-4 ovarian, 74.3 µM with TK-10 renal and 47.9 µM in the experiment with UO-31 renal.
On to `CC(C)C[C@H](NC(=O)/C=C/Cn1ccc2ccccc2c1=O)B(O)O`, for which the GI50 with A498 renal was 1.7 µM; in the experiment on HCC-2998 colon it was 4.38 µM; in the experiment on MCF7 breast, 5.33 µM; in the experiment with NCI-H226 lung it was 1.76 µM; in the experiment on NCI-H460 lung it was 12.7 µM; with TK-10 renal, 3.27 µM. For the same compound, the GI50 in the experiment on UO-31 renal is 9.45 µM. Besides, the TGI with A498 renal is 7.95 µM; with HCC-2998 colon, 14.2 µM; in the experiment with MCF7 breast it was over 100 µM; with NCI-H226 lung it was 3.63 µM; in the experiment on NCI-H460 lung, 97.5 µM; in the experiment with TK-10 renal, 10.4 µM. The compound also showed a TGI in the experiment with UO-31 renal of over 100 µM.
`COc1cc2[nH]c(C(=O)c3cc(OC)c(OC)c(OC)c3)c(N)c2cc1C#CC1CC1`: the GI50 was 3.23 µM in the experiment with A498 renal; 3.38 µM with CCRF-CEM leukemia; 20.1 µM in the experiment with HCC-2998 colon; 1.85 µM in the experiment with MCF7 breast; 22.4 µM with NCI-H226 lung; 3.55 µM in the experiment on NCI-H460 lung. Moreover, the GI50 with OVCAR-4 ovarian was 4.01 µM; in the experiment with TK-10 renal it was 40 µM; with UO-31 renal, 2.6 µM. For the same compound, the TGI in the experiment on A498 renal is 61.1 µM; in the experiment with CCRF-CEM leukemia, over 100 µM; in the experiment on HCC-2998 colon it was over 100 µM; in the experiment with MCF7 breast, over 100 µM; in the experiment with NCI-H226 lung, over 100 µM; in the experiment on NCI-H460 lung, over 100 µM. Moreover, the TGI in the experiment on OVCAR-4 ovarian, in the experiment on TK-10 renal and with UO-31 renal was over 100 µM throughout.
On to `O=C(O)C1C(Br)(c2ccccc2)C1(Br)c1ccccc1` (stereo unspecified), for which the TGI in the experiment on A498 renal was 83.8 µM; in the experiment with EKVX NSCLC it was over 100 µM; in the experiment with HCC-2998 colon it was 53.7 µM; in the experiment on MCF7 breast, over 100 µM; in the experiment with NCI-H226 lung, over 100 µM; in the experiment on NCI-H460 lung it was over 100 µM. The TGI is 64.1 µM in the experiment with OVCAR-4 ovarian, over 100 µM in the experiment with TK-10 renal and 47.2 µM with UO-31 renal.
Turning to `CN(CCC#N)c1ccc(/C=C(\C#N)c2ccc(Br)cc2)cc1`, the GI50 in the experiment with A498 renal is over 100 µM; with MCF7 breast, 4.05 µM; in the experiment on NCI-H226 lung, over 100 µM; in the experiment on OVCAR-4 ovarian it was over 100 µM; with TK-10 renal, over 100 µM; in the experiment with UO-31 renal, over 100 µM. Further, the TGI in the experiment with A498 renal, in the experiment with MCF7 breast, with NCI-H226 lung, in the experiment on OVCAR-4 ovarian, with TK-10 renal and in the experiment with UO-31 renal was over 100 µM in each case.
Turning to `O=C1Nc2ccc(F)cc2/C1=C/c1ccc[nH]1`, the GI50 in the experiment with A498 renal was over 25 µM; in the experiment with HCC-2998 colon it was over 22.1 µM; in the experiment on MCF7 breast, 1.06 µM; in the experiment with NCI-H226 lung, over 25 µM; in the experiment on NCI-H460 lung it was over 25 µM; with OVCAR-4 ovarian it was 4.06 µM. The GI50 with TK-10 renal was 14.4 µM; in the experiment on UO-31 renal, over 16.8 µM. For the same compound, the TGI with A498 renal, in the experiment on HCC-2998 colon, with MCF7 breast, in the experiment with NCI-H226 lung, with NCI-H460 lung and in the experiment with OVCAR-4 ovarian was over 25 µM each time. For the same compound, the TGI in the experiment with TK-10 renal and in the experiment on UO-31 renal was over 25 µM each time.
With `COc1cccc2c(=O)c3c(sc12)c(N1CCNCC1)nc1ccccc13`, the GI50 was 1.69 µM with A498 renal; 1.62 µM with EKVX NSCLC; 1.7 µM in the experiment with HCC-2998 colon; 1.57 µM in the experiment with MCF7 breast; 1.58 µM in the experiment on NCI-H226 lung; 1.72 µM in the experiment on NCI-H460 lung. Moreover, the GI50 in the experiment on OVCAR-4 ovarian is 1.8 µM; in the experiment with TK-10 renal, 1.85 µM; with UO-31 renal it was 1.07 µM. For the same compound, the TGI in the experiment on A498 renal amounted to 3.14 µM; in the experiment with EKVX NSCLC it was 3.17 µM; in the experiment with HCC-2998 colon, 3.26 µM; in the experiment with MCF7 breast it was 3.28 µM; in the experiment on NCI-H226 lung, 3.18 µM; in the experiment on NCI-H460 lung, 3.41 µM. Besides, the results for the TGI with OVCAR-4 ovarian, in the experiment with TK-10 renal and in the experiment on UO-31 renal were 3.62 µM, 3.44 µM and 2.32 µM, respectively.
Regarding `COc1c(CCl)cc(-c2cc(=O)c3ccccc3s2)cc1CCl`, the TGI in the experiment with A498 renal was 90.7 µM; with EKVX NSCLC, over 100 µM; in the experiment with MCF7 breast, over 22.7 µM; in the experiment with NCI-H226 lung, over 31.6 µM; in the experiment on NCI-H460 lung, over 100 µM; in the experiment with OVCAR-4 ovarian, 16.4 µM. Besides, the figures for the TGI in the experiment on TK-10 renal and in the experiment with UO-31 renal were 99.7 µM and 3.84 µM, respectively.
For the compound `Nc1ccn(C2CCC(CO)O2)c(=O)n1` (stereo unspecified), the GI50 with CCRF-CEM leukemia is 108 µM; in the experiment with EKVX NSCLC, over 1000 µM; in the experiment on HCC-2998 colon it was over 1000 µM; with MCF7 breast, over 1000 µM; with NCI-H226 lung, over 1000 µM; in the experiment on OVCAR-4 ovarian it was over 1000 µM. The TGI with CCRF-CEM leukemia, in the experiment on EKVX NSCLC, in the experiment with HCC-2998 colon, in the experiment with MCF7 breast, in the experiment with NCI-H226 lung and in the experiment on OVCAR-4 ovarian was over 1000 µM each time. The TGI in the experiment on TK-10 renal and in the experiment on UO-31 renal was over 1000 µM in each case.
